Test results from ChEMBL document CHEMBL5120822, “Inhibition of the P2X7/NLRP3 Inflammasome Signaling Pathway by Deacetylgedunin from Toona sinensis” (J Nat Prod, 2022).
Activity calls are given as the source filed them. The rule behind the calls is not given here.

Legend:
THP-1 [1] = test: Antiinflammatory activity against PMA-differentiated and LPS/ATP stimulated human THP-1 cells assessed as increase in cell viability at 5 to 20 uM incubated for 1 hrs followed by LPS stimulation for 12 hrs and ATP addition for 0.5 hrs by CCK8 assay; type: functional, cell-based; conditions: dose 5-20 µM, time 13.5 hrs
[2] = molecular target: NACHT, LRR and PYD domains-containing protein 3 (Homo sapiens) (UniProt Q96P20); test: Inhibition of NLRP3 inflammasome activation in PMA-differentiated and LPS/NIG-stimulated human THP-1 cells assessed as decrease in pro-caspase-1 expression at 20 uM incubated for 1 hrs followed by LPS stimulation for 12 hrs and NIG addition for 2 hrs by western blot analysis; type: cell-based; conditions: time 15.0 hrs
[3] = molecular target: NACHT, LRR and PYD domains-containing protein 3 (Homo sapiens) (UniProt Q96P20); test: (§1) Inhibition of NLRP3 inflammasome activation in PMA-differentiated and LPS/ATP-stimulated human THP-1 cells assessed as assessed as increase in potassium ion concentration at 5 to 20 uM incubated for 1 hrs followed by LPS stimulation for 12 hrs and ATP addition for 0.5 hrs by EPG-2 AM staining based flow cytometry; type: cell-based; conditions: dose 5-20 µM, time 13.5 hrs
[4] = molecular target: NACHT, LRR and PYD domains-containing protein 3 (Homo sapiens) (UniProt Q96P20); test: as §1, with “confocal microscopy” for “flow cytometry”; type: cell-based; conditions: dose 5-20 µM, time 13.5 hrs
[5] = molecular target: NACHT, LRR and PYD domains-containing protein 3 (Homo sapiens) (UniProt Q96P20); test: Inhibition of NLRP3 inflammasome activation in PMA-differentiated and LPS/MSU-stimulated human THP-1 cells assessed as inhibition of IL-1beta secretion at 20 uM incubated for 1 hrs followed by LPS stimulation for 12 hrs and MSU addition for 6 hrs by ELISA; type: cell-based; conditions: time 19.0 hrs
THP-1 [6] = test: Cytotoxicity against human THP-1 cells assessed as survival rate at < 40 uM by CCK8 assay; type: toxicity, cell-based; conditions: thp-1, 40 µM
[7] = molecular target: NACHT, LRR and PYD domains-containing protein 3 (Homo sapiens) (UniProt Q96P20); test: Inhibition of NLRP3 inflammasome activation in PMA-differentiated and LPS/ATP-stimulated human THP-1 cells assessed as suppression of P2X7 expression at 5 to 20 uM incubated for 1 hrs followed by LPS stimulation for 12 hrs and ATP addition for 0.5 hrs by Western blot analysis; type: cell-based; conditions: dose 5-20 µM, time 13.5 hrs, DDE = dose-dependent effect
[8] = molecular target: NACHT, LRR and PYD domains-containing protein 3 (Homo sapiens) (UniProt Q96P20); test: Inhibition of NLRP3 inflammasome activation in PMA-differentiated and LPS/MSU-stimulated human THP-1 cells assessed as decrease in pro-IL-1beta expression at 20 uM incubated for 1 hrs followed by LPS stimulation for 12 hrs and MSU addition for 6 hrs by western blot analysis; type: cell-based; conditions: time 19.0 hrs
[9] = molecular target: NACHT, LRR and PYD domains-containing protein 3 (Homo sapiens) (UniProt Q96P20); test: Inhibition of NLRP3 inflammasome activation in PMA-differentiated and LPS/NIG-stimulated human THP-1 cells assessed as decrease of ASC oligomerization at 20 uM incubated for 1 hrs followed by LPS stimulation for 12 hrs and NIG addition for 2 hrs by DAPI staining based immunofluorescence analysis; type: cell-based; conditions: time 15.0 hrs
[10] = molecular target: NACHT, LRR and PYD domains-containing protein 3 (Homo sapiens) (UniProt Q96P20); test: Inhibition of NLRP3 inflammasome activation in LPS/ATP-induced human THP-1 cells assessed as suppression of P2X7 expression at 5 to 20 uM preincubated for 1 hrs followed by LPS for 12 hrs and ATP 0.5 hrs in presence of A438079 by Western blot analysis; type: cell-based; conditions: dose 5-20 µM, time 13.5 hrs
[11] = molecular target: NACHT, LRR and PYD domains-containing protein 3 (Homo sapiens) (UniProt Q96P20); test: Inhibition of NLRP3 inflammasome activation in PMA-differentiated and LPS/ATP-stimulated human THP-1 cells assessed as decrease in caspase-1 expression at 5 to 20 uM incubated for 1 hrs followed by LPS stimulation for 12 hrs and ATP addition for 0.5 hrs by western blot analysis; type: cell-based; conditions: dose 5-20 µM, time 13.5 hrs
[12] = molecular target: NACHT, LRR and PYD domains-containing protein 3 (Homo sapiens) (UniProt Q96P20); test: Inhibition of NLRP3 inflammasome activation in PMA-differentiated and LPS/ATP-stimulated human THP-1 cells assessed as reduction in nuclear localization of NF-KappaB at 20 uM incubated for 1 hrs followed by LPS stimulation for 12 hrs and ATP addition for 0.5 hrs by DAPI staining based immunofluorescence analysis; type: cell-based; conditions: time 13.5 hrs
THP-1 [13] = test: Antiinflammatory activity against PMA-differentiated and LPS/NIG stimulated human THP-1 cells assessed as increase in cell viability at 5 to 20 uM incubated for 1 hrs followed by LPS stimulation for 12 hrs and NIG addition for 2 hrs by CCK8 assay; type: functional, cell-based; conditions: dose 5-20 µM, time 15.0 hrs
[14] = molecular target: T1, P2X purinoceptor 7 (Homo sapiens) (UniProt Q99572); test: Inhibition of pronase mediated degradation of P2X7 in human THP-1 cells assessed as increase in P2X7 expression at 20 to 80 uM by Western blot analysis; type: cell-based; conditions: dose 20-80 µM
T1 sequence (whole entry): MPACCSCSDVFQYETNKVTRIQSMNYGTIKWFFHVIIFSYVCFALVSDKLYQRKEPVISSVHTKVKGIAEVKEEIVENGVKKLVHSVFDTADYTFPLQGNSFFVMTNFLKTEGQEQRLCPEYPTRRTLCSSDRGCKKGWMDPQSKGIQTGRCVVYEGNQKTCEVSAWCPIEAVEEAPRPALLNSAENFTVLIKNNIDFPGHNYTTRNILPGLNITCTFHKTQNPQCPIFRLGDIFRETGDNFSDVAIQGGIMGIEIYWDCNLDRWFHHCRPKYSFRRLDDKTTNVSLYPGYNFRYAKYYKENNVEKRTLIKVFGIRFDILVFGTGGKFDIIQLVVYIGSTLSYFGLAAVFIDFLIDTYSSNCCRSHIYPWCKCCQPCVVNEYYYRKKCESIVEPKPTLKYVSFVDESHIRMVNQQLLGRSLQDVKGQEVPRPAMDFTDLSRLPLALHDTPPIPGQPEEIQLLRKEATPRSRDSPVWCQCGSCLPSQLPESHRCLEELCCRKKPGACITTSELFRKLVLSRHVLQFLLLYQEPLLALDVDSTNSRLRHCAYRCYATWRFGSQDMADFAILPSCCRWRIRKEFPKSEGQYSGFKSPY

THP-1 [15] = test: Antiinflammatory activity against PMA-differentiated and LPS/NIG stimulated human THP-1 cells assessed as increase in cell viability at 5 to 20 uM incubated for 1 hrs followed by LPS stimulation for 12 hrs and NIG addition for 2 hrs by LDH assay; type: functional, cell-based; conditions: dose 5-20 µM, time 15.0 hrs
[16] = molecular target: NACHT, LRR and PYD domains-containing protein 3 (Homo sapiens) (UniProt Q96P20); test: Inhibition of NLRP3 inflammasome activation in PMA-differentiated and LPS/NIG-stimulated human THP-1 cells assessed as decrease in caspase-1 expression at 20 uM incubated for 1 hrs followed by LPS stimulation for 12 hrs and NIG addition for 2 hrs by western blot analysis; type: cell-based; conditions: time 15.0 hrs
THP-1 [17] = test: Antiinflammatory activity against PMA-differentiated and LPS/MSU stimulated human THP-1 cells assessed as increase in cell viability at 5 to 20 uM incubated for 1 hrs followed by LPS stimulation for 12 hrs and MSU addition for 6 hrs by CCK8 assay; type: functional, cell-based; conditions: dose 5-20 µM, time 19.0 hrs
J774.A1 = test: Antiinflammatory activity against LPS/ATP-induced […] cells assessed as inhibition of ROS release at 20 uM incubated for 1 hrs followed by LPS stimulation for 12 hrs and ATP addition for 0.5 hrs by DCFH-DA staining based flow cytometry analysis; type: functional, cell-based; conditions: Mus musculus, time 13.5 hrs
[18] = molecular target: NACHT, LRR and PYD domains-containing protein 3 (Homo sapiens) (UniProt Q96P20); test: Inhibition of NLRP3 inflammasome activation in PMA-differentiated and LPS/ATP-stimulated human THP-1 cells assessed as decrease in pro-IL-1beta expression at 5 to 20 uM incubated for 1 hrs followed by LPS stimulation for 12 hrs and ATP addition for 0.5 hrs by western blot analysis; type: cell-based; conditions: dose 5-20 µM, time 13.5 hrs
[19] = molecular target: NACHT, LRR and PYD domains-containing protein 3 (Homo sapiens) (UniProt Q96P20); test: Inhibition of NLRP3 inflammasome activation in PMA-differentiated and LPS/MSU-stimulated human THP-1 cells assessed as decrease in caspase-1 expression at 20 uM incubated for 1 hrs followed by LPS stimulation for 12 hrs and MSU addition for 6 hrs by western blot analysis; type: cell-based; conditions: time 19.0 hrs

Chain of NACHT, LRR and PYD domains-containing protein 3 (Homo sapiens) (Q96P20 whole entry, the tested form may be a part): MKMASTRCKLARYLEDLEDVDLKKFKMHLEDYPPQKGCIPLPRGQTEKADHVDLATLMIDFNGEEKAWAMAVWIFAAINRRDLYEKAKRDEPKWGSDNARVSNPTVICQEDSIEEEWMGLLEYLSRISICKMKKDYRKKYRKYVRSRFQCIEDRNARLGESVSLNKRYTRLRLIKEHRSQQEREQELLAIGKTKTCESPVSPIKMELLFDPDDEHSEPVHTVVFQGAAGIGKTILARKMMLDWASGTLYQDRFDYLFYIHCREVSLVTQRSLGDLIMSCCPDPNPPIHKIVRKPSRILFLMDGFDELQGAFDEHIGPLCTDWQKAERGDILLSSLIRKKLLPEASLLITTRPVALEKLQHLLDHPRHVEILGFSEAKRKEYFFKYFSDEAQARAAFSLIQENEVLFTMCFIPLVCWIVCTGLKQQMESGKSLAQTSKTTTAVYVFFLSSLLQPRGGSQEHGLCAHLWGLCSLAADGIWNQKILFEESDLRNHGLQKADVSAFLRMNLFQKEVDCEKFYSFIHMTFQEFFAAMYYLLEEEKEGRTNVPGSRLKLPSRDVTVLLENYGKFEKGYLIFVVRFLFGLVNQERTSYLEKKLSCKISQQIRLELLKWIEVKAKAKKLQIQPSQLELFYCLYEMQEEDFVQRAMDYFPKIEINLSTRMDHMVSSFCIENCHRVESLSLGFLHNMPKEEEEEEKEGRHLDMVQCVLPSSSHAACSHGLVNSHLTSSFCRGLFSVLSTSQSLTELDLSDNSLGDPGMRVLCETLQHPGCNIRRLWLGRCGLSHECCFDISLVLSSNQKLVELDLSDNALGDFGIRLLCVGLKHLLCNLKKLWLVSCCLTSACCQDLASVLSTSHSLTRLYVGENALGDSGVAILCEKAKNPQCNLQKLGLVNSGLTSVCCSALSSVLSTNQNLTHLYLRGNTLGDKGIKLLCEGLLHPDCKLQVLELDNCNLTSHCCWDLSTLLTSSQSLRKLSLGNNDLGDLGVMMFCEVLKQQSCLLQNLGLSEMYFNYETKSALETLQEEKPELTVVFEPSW

## CC1(C)C(=O)C=C[C@]2(C)[C@H]3CC[C@@]4(C)[C@H](c5ccoc5)OC(=O)[C@H]5O[C@]54[C@]3(C)[C@H](O)C[C@@H]12 [DEACETYLGEDUNIN]
THP-1 [1]
  Activity: Active
[2]
  inhibition: Active
[3]
  inhibition: Active
[4]
  inhibition: Active
[5]
  inhibition: Active
THP-1 [6]
  Activity: Non-Toxic
[7]
  inhibition: Dde
[8]
  inhibition: Active
[9]
  inhibition: Active
[10]
  inhibition: Active
[11]
  inhibition: Active
[12]
  inhibition: Active
THP-1 [13]
  Activity: Active
[14]
  inhibition: Active
THP-1 [15]
  Activity: Active
[16]
  inhibition: Active
THP-1 [17]
  Activity: Active
J774.A1
  Activity: Active
[18]
  inhibition: Active
[19]
  inhibition: Active
